In patent publication US11000033B2, “Ketone or oxime compound, and herbicide” (NISSAN CHEMICAL CORPORATION, priority 2014, dated 2021):

What was measured:
Assay type in all cases: in vivo
[1] = tested on: Echinochloa oryzacola Vasing.; test: Test Example 1: herbicidal activity, application before weed generation in submerged conditions (symbol A); settings: application herbicide amount 320 g/ha
Summary of the method: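 Application before weed emergence: an aqueous dilution of the emulsion formulation was poured onto the surface of 4 cm-deep floodwater on the day of sowing. Effect was judged after 3 weeks (greenhouse, 25–30 °C).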

[2] = tested on: Echinochloa oryzacola Vasing.; test: Test Example 2: herbicidal activity, application during weed generation in submerged conditions (symbol A); settings: Table 23; application herbicide amount 320 g/ha; grade 0-5 by criteria of Test Example 1
Summary of the method: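 Submerged alluvial soil (4 cm) sown with mixed seed; greenhouse 25–30° C. 1–2 leaf: diluted emulsion onto water surface, preset dose. Visual score, 3 wk.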

[3] = tested on: Echinochloa crus-galli var. crus-galli; test: Test Example 4: herbicidal effect by soil treatment (symbol H); settings: application herbicide amount 320 g/ha
Summary of the method: (§1)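 Seeds were sown in sterilized diluvial soil, covered with about 1.5 cm of soil, and the soil surface was sprayed with a water-diluted emulsion of the compound at a predetermined rate. Plants grew in a greenhouse at 25° C. to 30° C.; effects were scored visually 3 weeks after application.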

[4] = tested on: Avena fatua; test: Test Example 4: herbicidal effect by soil treatment (symbol I); settings: application herbicide amount 320 g/ha
Summary of the method: as §1

[5] = tested on: Alopecurus myosuroides; test: Test Example 4: herbicidal effect by soil treatment (symbol J); settings: application herbicide amount 320 g/ha
Summary of the method: as §1

[6] = tested on: Lolium multiflorum Lam.; test: Test Example 4: herbicidal effect by soil treatment (symbol K); settings: application herbicide amount 320 g/ha
Summary of the method: as §1

[7] = tested on: corn; test: Test Example 4: effect on crop by soil treatment (symbol c); settings: application herbicide amount 320 g/ha
Summary of the method: (§2)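 Sterilized diluvial soil, spot sowing, ~1.5 cm soil cover; greenhouse 25–30° C.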

[8] = tested on: rapeseed; test: Test Example 4: effect on crop by soil treatment (symbol g); settings: application herbicide amount 320 g/ha
Summary of the method: as §2

[9] = tested on: Setaria viridis; test: Test Example 5: herbicidal effect by foliage application, plastic box (symbol G); settings: 320 g/ha, 3 weeks after application
Summary of the method: (§3)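 Post-emergence spray; diluvial soil (sterilized), ~1.5 cm seed cover; greenhouse 25–30° C; 14-day-old plants; water-diluted emulsion at predetermined dose; visual score at 3 wk post-treatment.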

[10] = tested on: Lolium multiflorum Lam.; test: Test Example 5: herbicidal effect by foliage application, plastic box (symbol K); settings: 320 g/ha, 3 weeks after application
Summary of the method: as §3

[11] = tested on: Abutilon theophrasti; test: Test Example 5: herbicidal effect by foliage application, plastic box (symbol M); settings: 320 g/ha, 3 weeks after application
Summary of the method: as §3

[12] = tested on: Amaranthus retroflexus; test: Test Example 5: herbicidal effect by foliage application, plastic box (symbol N); settings: 320 g/ha, 3 weeks after application
Summary of the method: as §3

[13] = tested on: Stellaria media; test: Test Example 5: herbicidal effect by foliage application, plastic box (symbol P); settings: 320 g/ha, 3 weeks after application
Summary of the method: as §3

[14] = tested on: Galium spurium; test: Test Example 5: herbicidal effect by foliage application, plastic box (symbol Q); settings: 320 g/ha, 3 weeks after application
Summary of the method: as §3

[15] = tested on: Veronica persica; test: Test Example 5: herbicidal effect by foliage application, plastic box (symbol R); settings: 320 g/ha, 3 weeks after application
Summary of the method: as §3

[16] = tested on: rice plant; test: Test Example 5: effect on crop by foliage application, plastic box (symbol b); settings: 320 g/ha, 3 weeks after application
Summary of the method: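 In a plastic box 7 cm deep filled with sterilized diluvial soil, seeds of crops and weeds such as Digitaria ciliaris, Avena fatua and Amaranthus retroflexus are sown in spots and covered with about 1.5 cm of soil before greenhouse growth at 25–30° C.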

| Structure (SMILES) | Herbicidal effect grade, A: Echinochloa oryzacola Vasing. [1] | Herbicidal effect grade, A: Echinochloa oryzacola Vasing. [2] | H (Echinochloa crus-galli var. crus-galli) herbicidal effect grade [3] | I (Avena fatua) herbicidal effect grade [4] | J (Alopecurus myosuroides) herbicidal effect grade [5] | K (Lolium multiflorum Lam.) herbicidal effect grade [6] | c (corn) effect on crop grade [7] | g (rapeseed) effect on crop grade [8] | G: Setaria viridis, herbicidal effect grade [9] | K: Lolium multiflorum Lam., herbicidal effect grade [10] | M: Abutilon theophrasti, herbicidal effect grade [11] | N: Amaranthus retroflexus, herbicidal effect grade [12] | P: Stellaria media, herbicidal effect grade [13] | Q: Galium spurium, herbicidal effect grade [14] | R: Veronica persica, herbicidal effect grade [15] | b: directly sowed rice plant, effect on crop grade [16] |
| --- | --- | --- | --- | --- | --- | --- | --- | --- | --- | --- | --- | --- | --- | --- | --- | --- |
| CON=C(C)C(c1ccc(F)cc1)C1CC(O)=C(c2c(C)cc(C)cc2C)C1=O (centres unmarked) [1-049] | 0 (Herbicidal ratio of 5% or lower (almost no effect)) | 0 (Herbicidal ratio of 5% or lower (almost no effect)) | 0 (Herbicidal ratio of 5% or lower (almost no effect)) | 0 (Herbicidal ratio of 5% or lower (almost no effect)) | 0 (Herbicidal ratio of 5% or lower (almost no effect)) | 0 (Herbicidal ratio of 5% or lower (almost no effect)) | 0 (Herbicidal ratio of 5% or lower (almost no effect)) | 0 (Herbicidal ratio of 5% or lower (almost no effect)) | 0 (Herbicidal ratio of 5% or lower (almost no effect)) | 0 (Herbicidal ratio of 5% or lower (almost no effect)) | 0 (Herbicidal ratio of 5% or lower (almost no effect)) | 0 (Herbicidal ratio of 5% or lower (almost no effect)) | 0 (Herbicidal ratio of 5% or lower (almost no effect)) | 0 (Herbicidal ratio of 5% or lower (almost no effect)) | 0 (Herbicidal ratio of 5% or lower (almost no effect)) | 0 (Herbicidal ratio of 5% or lower (almost no effect)) |
| CC(CC1CC(O)=C(c2c(C)cc(C)cc2C)C1=O)=NOCC(=O)N1CCOCC1 (centres unmarked) [1-025] | 4 (Herbicidal ratio of 70% or higher and lower than 90%) | 1 (Herbicidal ratio of 5% or higher and lower than 20%) | 5 (Herbicidal ratio of 90% or more (almost completely withered)) | 3 (Herbicidal ratio of 40% or higher and lower than 70%) | 4 (Herbicidal ratio of 70% or higher and lower than 90%) | 5 (Herbicidal ratio of 90% or more (almost completely withered)) | 0 (Herbicidal ratio of 5% or lower (almost no effect)) | 4 (Herbicidal ratio of 70% or higher and lower than 90%) | 4 (Herbicidal ratio of 70% or higher and lower than 90%) | 5 (Herbicidal ratio of 90% or more (almost completely withered)) | 1 (Herbicidal ratio of 5% or higher and lower than 20%) | 0 (Herbicidal ratio of 5% or lower (almost no effect)) | 4 (Herbicidal ratio of 70% or higher and lower than 90%) | 4 (Herbicidal ratio of 70% or higher and lower than 90%) | 3 (Herbicidal ratio of 40% or higher and lower than 70%) | 4 (Herbicidal ratio of 70% or higher and lower than 90%) |
| CON=CC(C)(C)C1CC(O)=C(c2c(C)cc(C)cc2C)C1=O (centres unmarked) [1-030] | 2 (Herbicidal ratio of 20% or higher and lower than 40%) | 2 (Herbicidal ratio of 20% or higher and lower than 40%) | 2 (Herbicidal ratio of 20% or higher and lower than 40%) | 0 (Herbicidal ratio of 5% or lower (almost no effect)) | 3 (Herbicidal ratio of 40% or higher and lower than 70%) | 5 (Herbicidal ratio of 90% or more (almost completely withered)) | 0 (Herbicidal ratio of 5% or lower (almost no effect)) | 0 (Herbicidal ratio of 5% or lower (almost no effect)) | 5 (Herbicidal ratio of 90% or more (almost completely withered)) | 5 (Herbicidal ratio of 90% or more (almost completely withered)) | 0 (Herbicidal ratio of 5% or lower (almost no effect)) | 0 (Herbicidal ratio of 5% or lower (almost no effect)) | 0 (Herbicidal ratio of 5% or lower (almost no effect)) | 0 (Herbicidal ratio of 5% or lower (almost no effect)) | 0 (Herbicidal ratio of 5% or lower (almost no effect)) | 5 (Herbicidal ratio of 90% or more (almost completely withered)) |
| CON=C(C)CC1CC(OC(=O)COc2ccc(Cl)cc2)=C(c2c(C)cc(C)cc2C)C1=O (centres unmarked) [1-044] | 5 (Herbicidal ratio of 90% or more (almost completely withered)) | 5 (Herbicidal ratio of 90% or more (almost completely withered)) | 5 (Herbicidal ratio of 90% or more (almost completely withered)) | 2 (Herbicidal ratio of 20% or higher and lower than 40%) | 5 (Herbicidal ratio of 90% or more (almost completely withered)) | 5 (Herbicidal ratio of 90% or more (almost completely withered)) | 4 (Herbicidal ratio of 70% or higher and lower than 90%) | 4 (Herbicidal ratio of 70% or higher and lower than 90%) | 5 (Herbicidal ratio of 90% or more (almost completely withered)) | 5 (Herbicidal ratio of 90% or more (almost completely withered)) | 4 (Herbicidal ratio of 70% or higher and lower than 90%) | 2 (Herbicidal ratio of 20% or higher and lower than 40%) | 0 (Herbicidal ratio of 5% or lower (almost no effect)) | 0 (Herbicidal ratio of 5% or lower (almost no effect)) | 0 (Herbicidal ratio of 5% or lower (almost no effect)) | 5 (Herbicidal ratio of 90% or more (almost completely withered)) |
| CON=C(CC1CC(O)=C(c2c(C)cc(C)cc2C)C1=O)C1CC1 (centres unmarked) [1-046] | 5 (Herbicidal ratio of 90% or more (almost completely withered)) | 5 (Herbicidal ratio of 90% or more (almost completely withered)) | 5 (Herbicidal ratio of 90% or more (almost completely withered)) | 5 (Herbicidal ratio of 90% or more (almost completely withered)) | 5 (Herbicidal ratio of 90% or more (almost completely withered)) | 5 (Herbicidal ratio of 90% or more (almost completely withered)) | 4 (Herbicidal ratio of 70% or higher and lower than 90%) | 4 (Herbicidal ratio of 70% or higher and lower than 90%) | 5 (Herbicidal ratio of 90% or more (almost completely withered)) | 5 (Herbicidal ratio of 90% or more (almost completely withered)) | 3 (Herbicidal ratio of 40% or higher and lower than 70%) | 2 (Herbicidal ratio of 20% or higher and lower than 40%) | 2 (Herbicidal ratio of 20% or higher and lower than 40%) | 0 (Herbicidal ratio of 5% or lower (almost no effect)) | 4 (Herbicidal ratio of 70% or higher and lower than 90%) | 5 (Herbicidal ratio of 90% or more (almost completely withered)) |
